“Also recorded” adds a separate entry of the source.
Assays:
CD4 = assay type: cell-based, human
HIV-1 isolate (X4) [1] = assay: HIV replication (p24 antigen release) in Jurkat cell lines stably expressing NS5A proteins/peptides; assay type: cell-based; settings: Jurkat cell lines stably expressing the protein/peptide vs vector and frame-shift controls
SDF-1 = assay type: cell-based, human
CXCR4 = assay type: cell-based, human
HIV-1 isolate (X4) [2] = assay type: cell-based
Jurkat cells = assay type: cell-based, human

Row | Sequence | CD4 surface expression (CD4) | HIV replication (HIV p24 antigen release into culture supernatants) (HIV-1 isolate (X4) [1]) | SDF-1 release into culture supernatants (SDF-1) | CXCR4 surface expression (CXCR4) | HIV replication (HIV-1 isolate (X4) [2]) | CD4 mRNA regulation, in words (Jurkat cells) | regulation of Th2 cytokines, TNFα, and BCL2 mRNA (Jurkat cells)
1 | VDGIPVEWDADARAPA [S158E] | down-regulate CD4 | significantly inhibited; also recorded: significantly less HIV replication than all other cell lines | induced SDF-1 release | significantly less CXCR4 expressed | – | – | –
2 | VDGIPVGWDADARAPA (Hepatitis GB virus C) [S158G] | do not | inhibited HIV replication; also recorded: significantly less HIV replication than FS and VC | – | – | – | – | –
3 | DVIRAGPAWDSVAPAD [152-167scr, negative control, reference compound] | do not | – | – | – | Neither peptide inhibited HIV replication | – | –
4 | VDGIPVSWDADARA (Hepatitis GB virus C) [152-165] | – | significantly reduced | induced | – | – | – | –
5 | VDGIPVSWDADARAPA (Hepatitis GB virus C) [152-167] | down-regulate CD4 | significantly reduced | – | – | – | down-regulated | do not appear to be altered
6 | VDGIPVAWDADARAPA (Hepatitis GB virus C) [S158A] | do not | inhibited HIV replication; also recorded: significantly less HIV replication than FS and VC | – | – | – | – | –

— US8268778B2, “Flavivirus NS5A proteins for the treatment of HIV” (priority 2007, dated 2012)
